One series is described as follows: Cytotoxicity assay (MTT). The conditions noted are these: African green monkey, free (not encapsulated), Vero cells. Type of series: cell-based, African green monkey (Cercopithecus aethiops). The procedure:
Initially, we evaluated the influence of liposomes on cell viability. For this, monolayers of Vero cells (10^4 cells/mL) were incubated with several concentrations of 2-aminomethyl-3-hydroxy-1,4 naphthoquinone derivatives that either were or were not encapsulated in the liposome (0.5 to 10 μM) for 48 h at 37 °C (Table 2). Following this, 1 mg/mL of 3-(4,5-Dimethylthiazol-2-yl)-2,5 Diphenyl Tetrazolium Bromide was added to each well for 4 h at 37 °C and the resulting purple formazan was followed at 570 nm. Since liposomes are considered an excellent delivery system, it may be reasonable for the liposome to increase the cytotoxic effect on cells.
Vero cells cultivated in 96-multiwell plates (1 × 10^4 cells/well) were incubated with liposomes coupled to 2-aminomethyl-3-hydroxy-1,4-naphthoquinones in different concentrations (0.5, 1, 5 and 10 μM) for 48 h at 37 °C and 5% CO2 atmosphere. Then, 50 μL of 3-(4,5-dimethylthiazol-2-yl)-2,5 diphenyl MTT (1 mg/mL, Sigma-Aldrich, St Louis, MO, USA) was added to each well for 4 h at 37 °C [48]. The MTT reduction in living cells creates formazan, a purple compound that is absorbed at 570 nm. The 50% cytotoxic concentration (CC50) was calculated by linear regression analysis of the dose–response curves.

A further series relates to HSV-1. Further details: method as in PMID 24493066, PMID 26913545. As to conditions: free compounds, previous studies against HSV-1; ref [36],[38]; cited from earlier work.
For another series, the system named is BALB/c. Set-up: method as in earlier work. The conditions noted are these: oral administration, ref [37]; cited from earlier work.
A further series has as its system HSV-1 strain SC-16. In words: Yield reduction assay. Type of series: cell-based, Herpes Simplex Virus 1. The conditions noted are these: for EC50: Human alphaherpesvirus 1, SC16; for SI (CC50/EC50 ratio): free (non-encapsulated) derivatives, concentrations up to 10 μM. The procedure: Briefly, after incubation with HSV-1 (MOI of 0.1) for 1 h at 37 °C, cells were washed with MEM 5% FCS and incubated with acyclovir, […] from 0.01 to 10 μM for 24 h in atmosphere, with 5% CO2 at 37 °C. After the dilution (1:10) of the viral suspension, new 24-well plates were used to determine the EC50 values, based on viral control.
For all antiviral assays, strain SC-16 HSV-1 was used at a multiplicity of infection (MOI) of 0.1 to infect Vero cells at 3 × 10^5 cells/well using a modified yield reduction assay. All aminomethylnaphthoquinone derivatives were previously diluted in pre-chilled MEM with 5% FCS.
To determine the HSV-1 title, Vero cells maintained in 24-multiwell plates (3 × 10^5 cell/well) were infected with HSV-1 strain SC-16 ([…]) for 1 h at 37 °C and 5% CO2 atmosphere.
After the removal of the viral inoculum, cells were treated with 0.01 µM to 10 µM of compound 1, 2, 3 and ACV encapsulated in liposomes for 24 h at 37 °C and 5% CO2 atmosphere. Then, the cells were subjected to three cycles of freezing and thawing and the inoculum diluted (1:10) to a new infection in 24-multiwell plates (10^5 cells/well) for 1 h at 37 °C and 5% CO2 atmosphere. The cells were covered with MEM 2X, 5% FCS and 2% methylcellulose for 48h at 37 °C and the viral title was determined by the number of viral plaque units per mL (PFU/mL). EC50 values, which means the drug concentration able to inhibit 50% of the viral plaque formation, were determined by linear regression compared to the untreated infected control.

In general, CC50 refers to the concentration giving 50% cytotoxicity. Read a low CC50 as greater toxicity to the cells. One may read the EC50 as the concentration needed to bring the measured effect to its halfway point. High values mean a need for much substance, low ones an effect from little substance.

In the case of `Nc1nc2c(ncn2COCCO)c(=O)[nH]1` [Acyclovir, acyclovir, reference compound], in “Cytotoxicity assay (MTT)”, the CC50 at 48 h is 15 ± 1 µM. In addition, in the series on HSV-1, the SI is recorded as 0.80.
Regarding `CCCCNC(C1=C(O)C(=O)c2ccccc2C1=O)c1ccc(Cl)cc1Cl` (stereo not drawn) [compound 1], the “Effect on transaminases level or kidneys functions” value with BALB/c is recorded as “no effect on transaminases level or kidneys functions”. In addition, the CC50 at 48 h in the series “Cytotoxicity assay (MTT)” is 19 ± 1 µM. Further, in the series with HSV-1 strain SC-16, the EC50 came out at 1.98 ± 0.3 µM and the “SI (CC50/EC50 ratio)” value amounted to 9.6.
In “Cytotoxicity assay (MTT)”, `O=C1C(O)=C(C(NCc2ccccc2)c2ccc(Cl)cc2Cl)C(=O)c2ccccc21` (stereo not drawn) [compound 2] had a CC50 at 48 h of 22 ± 2 µM. Further, in the series with HSV-1 strain SC-16, the EC50 is 1.06 ± 0.49 µM and the “SI (CC50/EC50 ratio)” value amounted to 20.75.
The corresponding values for `O=C1C(O)=C(C(NCc2ccccc2)c2ccc([N+](=O)[O-])cc2)C(=O)c2ccccc21` (stereo not drawn) [compound 3] are 17 ± 2 µM, 3.1 µM and 5.48.

The record behind these values is PMC8586984, “Antiviral Potential of Naphthoquinones Derivatives Encapsulated within Liposomes” (Molecules, 2021).
